The nature of data set [1]: toxicity of 14-day continuous intravenous infusion in monkeys. The data set is classed as in vivo. Particulars: 14-day CIV. On the procedure: (§1) Cynomolgus monkeys received continuous IV infusion over 14 days of Formula I at 5 mg/kg/day, 15 mg/kg/day, or 30 mg/kg/day. The drug was infused intravenously (24 hours/day) into the femoral vein at a dose rate of 2 ml/kg/hour for 14 consecutive days. Blood samples were removed from each monkey on Days 1, 2, 6, 10, and 15 of the treatment period. Monkeys were bled by venipuncture and samples were collected into tubes containing K2EDTA. On Day 1, samples were collected at 2, 6, and 12 hours after initiation of treatment. Additional samples were collected at 30 hours after the start of infusion (Day 2). On Days 6 and 10, samples were collected at approximately 6 hours after the bag changes. At the end of the 14 days of infusion, on Day 15, samples were collected at 1 hour prior to cessation of dose administration, and at 5 min, 30 min, 1 h, 2 h, 4 h, 8 h, and 24 h following cessation of dose administration.

A short description of data set [2]: maximum tolerated dose and tolerability of bolus administration in mice. The data set is classed as in vivo.
Data set [3] can be described thus: population pharmacokinetic analysis, monkey (CIV). The format is in vivo. More on the design: mean clearance: unit not given here. Particulars: for mean clearance: monkeys, 14-day continuous infusion. On the procedure:
(§2) An analysis was performed to derive allometric equations for Formula I pharmacokinetic parameters using Formula I plasma concentration-time data from three species, including mouse, rat, and monkey, and to estimate human pharmacokinetic parameters from those allometric equations.
(§3) Plasma concentrations of Formula I were obtained from mice, rats, and monkeys following intravenous injection or continuous infusion. Formula I pharmacokinetic parameters in mice, rats, and monkeys were estimated using population pharmacokinetic analysis, a function of the software program NONMEM™ (version 5). Typical population pharmacokinetic parameters for Formula I in humans were extrapolated from allometric equations that were derived from pharmacokinetic parameters estimated in the three animal species.
(§4) A two-compartment model with a first-order elimination from the central compartment adequately described Formula I plasma concentration-time profiles following intravenous bolus injection (30 mg/kg) in mice and rats, 7-day continuous infusion in rats (50 to 170 mg/kg/day), and 14-day continuous infusion in monkeys (5 to 30 mg/kg/day).
Application of a two-compartment model with Michaelis-Menten elimination better described the concentration data in monkeys than the linear model. Because the target concentration in humans is 2 μM, at which linear pharmacokinetics is assumed, all simulations for human plasma concentrations were performed based on a two-compartment model with linear first-order elimination.

Data set [4] is described as follows: population pharmacokinetic analysis, rat (IV + CIV). The format is in vivo. Particulars: population PK. The protocol: as §2, §3, §4
The test system of data set [5] is human glioma (U-87MG) tumor xenograft. In words: human U-87MG glioblastoma xenograft antitumor efficacy. The format is in vivo, female athymic (nu/nu) nude mice. Particulars: SC 30 mg/kg q1d×5 over 2 weeks. The text has this:
In this model and the models of Examples 3, 6 and 7, tumor growth was followed every other day by measuring tumor length (L) and width (W) using a calliper. Measurements were converted to tumor volumes (TV; mm^3) using the standard formula, TV=(L×W^2)/2. Tumor volume at day n was expressed as relative tumor volume (RTV) according to the following formula RTV=TVn/TV0, where TVn is the tumor volume at day n and TV0 is the tumor volume at day 0. The percentage of tumor growth inhibition (% TGI) was determined by 1−(mean RTV of treated group/mean RTV of control group)×100. […] Statistical analysis was calculated by the two-tailed unpaired t test using the Prism software. Animals were weighed at least twice weekly during and after treatment until completion of the study. The mice were examined frequently for overt signs of any adverse drug-related side effects.
The human U-87 MG (ATCC® no. HTB-14™) glioblastoma antitumor efficacy study was performed at INSERM U318 (Grenoble, France). The U-87MG cell line is derived from a brain glioblastoma of a person. […]
For the human glioblastoma antitumor efficacy study, female athymic (nu/nu) nude mice (6-7 weeks of age) were inoculated SC with 5×10^6 U-87MG cells (day 0). […] Tumor growth inhibition (TGI) was calculated on day 34 post tumor cell inoculation, at which time some animals from the vehicle control group had to be sacrificed due to tumor burden.
A general note: In xenograft studies the graft and the host belong to different species.

The nature of data set [6]: human pharmacokinetic parameters extrapolated from allometric equations. Particulars: estimated from allometric equations. The protocol: as §2, §3
Allometric equations for the pharmacokinetic parameters clearance (CL), volume of distribution (V1 and V2), and inter-compartmental clearance (Q) were derived. The population PK parameters of the compound of Formula I for humans were extrapolated from the allometric equations, and the estimated values are shown in Table 6. Simulated Formula I plasma concentration-time profiles in humans are shown in FIG. 13 and estimated end of infusion concentrations are provided in Table 7.

Data set [7] is described as follows: pharmacokinetics of 14-day CIV infusion in monkeys. Particulars: for T1/2z: calculated at the end of treatment, mean. The format is in vivo, Cynomolgus monkeys. On the procedure:
as §1

A value given as a limit tells only on which side of the number the result lay.

As for `CC(C)=CCC/C(C)=C/CC/C(C)=C/CN1C(=O)c2cccc(O)c2Nc2c(O)cc(O)cc21` [Formula I, 10-farnesyl-4,6,8-trihydroxy-dibenzodiazepin-11-one], in data set [1], the “degenerative changes in organs, including the infusion site” value is listed as “No degenerative changes”. For the same molecule, the “effect on body weight, ocular condition, electrocardiographic activity and other parameters” value in data set [1] is “no effect”. Besides, in data set [1], the side effects result is “inappetance and a moderate degree of regenerative anemia, were reversible”. In addition, the compound associated toxicity entry in data set [1] (5 to 30 mg/kg/day) is “no severe compound associated toxicity”. Further, the tolerability finding entry in data set [2] (IP bolus dosing) is “some intestinal occlusion”; in data set [2] (SC bolus dosing), “swelling and thickening of the skin”. Besides, the Ke in data set [3] (Monkey (CIV), population PK) is 2.172 h⁻¹; in data set [4], 8.651 h⁻¹; in data set [6], 1.192 h⁻¹. For the same molecule, the mean clearance in data set [3] (5 mg/kg/day) is 0.63; in data set [3] (15 mg/kg/day), 0.57; in data set [3] (30 mg/kg/day), 0.23. For the same molecule, the body weight loss result in data set [5] is “no significant body weight loss”. Besides, in data set [6], the Q was 0.533 mL/min/kg. Moreover, the “t1/2,α” value in data set [6] is recorded as 0.509 h. Further, the “t1/2,β” value in data set [6] was 13.8 h. In addition, the figures for the “fold increase in AUC between groups” value in data set [7] (15 mg/kg/day versus 5 mg/kg/day) and in data set [7] (30 mg/kg/day versus 15 mg/kg/day) were 3.4 fold and 4.7 fold, respectively. The T1/2z in data set [7] (CIV 5 mg/kg/day) was 12 h; in data set [7] (CIV 15 mg/kg/day) it was 8.3 h; in data set [7] (CIV 30 mg/kg/day), 8.1 h. In data set [7] (cynomolgus monkey, plasma, 14-day IV continuous infusion, read-out: stable plasma concentrations above the therapeutic threshold), the concentration at 14 days is greater than 2000 nM.

(Values after patent publication US7763604B2, “Methods for administration of a farnesyl dibenzodiazepinone” (Thallion Pharma Ceuticals, Inc., priority 2005, dated 2010).)
